“Also recorded” adds a separate entry of the source. Bridges are numbered along the chain shown (N, C = ends). Where no end group is shown, it is not given here. The star is where a group is joined. Boc = CC(C)(C)OC(=O)*
What was measured:
Format in all cases: cell-based, human
[1] = test system: Wnt-5a-induced Ca^2+ signaling; test: Determination of cytosolic free calcium levels (fura-2) in A2058 cells; conditions: for Cytosolic Ca^2+ response in A2058 cells, control G-protein coupled receptor ligands: endothelin-1 10 nM, charbacol 5 μM
Description: Cells grown on a glass cover slip were incubated with 4 μM fura-2/AM in culture medium for 30 minutes at 37° C. (Dejmek et al., 2006). After fura-2 loading of the cells, the cover slips were washed and mounted in a specially designed chamber to which was added a calcium-containing medium (136 mM NaCl, 4.7 mM KCl, 1.2 mM MgSO4, 1.1 mM CaCl2, 1.2 KH2PO4, 5 mM NaHCO3, 5.5 mM glucose and 20 mM Hepes, pH 7.4). The chamber was then placed in a system consisting of a NIKON Diaphot microscope connected to a Photon Technology International (PTI) imaging system. The cells were first allowed to rest for 10 minutes before any stimulation was performed. Fura-2 fluorescence was then recorded continuously from the cells before and after the stimulations with either Wnt-5a, endothelin-1 or charbacol (as indicated in the legend to FIG. 8) using an excitation wavelength rapidly alternating between 340 and 380 nm, while the emission wavelength was set at 510 nm. The fluorescence intensity ratios (340/380 nm) were subsequently calculated and analyzed using the PTI Image Master Software. Statistical analysis—The Student's t-test for unpaired samples was used to analyze differences in the experiments, where *=p<0.05, **=p<0.01, and ***=p<0.001

HTB63 melanoma cells [2] = test: BD Matrigel invasion chamber assay, HTB63 cells; conditions: 100 μM Box5, 24 hours
Description: (§1) Cell invasion was analyzed using the BD Matrigel™ invasion chamber assay (BD Biosciences, Bedford, Mass.). Prior to the initiation of each experiment, the cells were detached with Versene and re-suspended as single cells in serum-free RPMI medium. As indicated, cells were pre-incubated with the Box5 peptide (100 μM) or control solvent for 40 min with continuous agitation. An aliquot of the cell suspension containing 25,000 cells and 100 μM Box5 or control solvent was then added to the upper transwell chamber, and the lower chamber was filled with serum-containing (10%) medium. The invasion chambers were shaken horizontally for 5 min to ensure even distribution of the cells in suspension and subsequently across the membrane surface. The cells were allowed to invade for the periods of time indicated at 37° C. in a humidified atmosphere of 5% CO2. The medium was discarded and cells were fixed in 4% paraformaldehyde for 10 min. The cells were stained with 0.5% crystal violet in 20% methanol for 10 min and the non-invading cells on the inner side of the membrane were removed with a cotton-tipped applicator. The membrane was cut out of the chamber using a scalpel blade and the stained cells on the lower chamber side of the membrane were counted.

HTB63 melanoma cells [3] = test: Wound-healing assay (migration), HTB63 cells; conditions: 100 μM peptide in conditioned medium containing secreted Wnt-5a
Description: (§2) Cells were plated in 12 well plates and allowed to grow into a confluent layer in complete RPMI (for A2058 cells) or complete McCoy's 5A medium (for HTB63 cells). As indicated, cells were pre-incubated with the Box5 peptide (100 μM) or control solvent for 40 min with continuous agitation. A wound was then inflicted by making a scratch through the confluent layer of cells with a pipette tip. During the migration period of the assay, cells were incubated either in serum-free medium or in the case of HTB63 cells in their own serum-free-conditioned medium collected from cells cultured for 48 h and used within 2 days after collection. The exact conditions of each experiment are described above. To avoid loss of activity, cell medium was changed after 24 hours. A picture for each scratch was taken in the same area of cells at 0, 16, 24, 40 and 48 hours, and wound healing was measured as percentage of wound area closed. For each experimental condition wound healing was analysed in triplicate. All data were based on 3 to 8 separate experiments as indicated.

A2058 melanoma cells [4] = test: BD Matrigel invasion chamber assay, A2058 cells
Description: as §1

A2058 melanoma cells [5] = test: Wound-healing assay (migration), A2058 cells
Description: as §2

PKC = test: MARCKS phosphorylation (PKC activity) in A2058 cells, Western blot; conditions: 100 μM Box5 overnight, rWnt-5a 0.2 μg/ml
Description: The cells were either directly lysed in 1× Laemmli buffer containing DTT and boiled for 10 min, or lysed in buffer containing 50 mM Tris-HCl (pH 7.5), 1% Triton X-100, 100 mM NaCl, 10 mM MgCl2, 20% glycerol, 1 mM Na3VO4, and protease inhibitors (20 μg/ml aprotinin, 1 μg/ml leupeptin, 2.5 mM benzamidine, and 2 mM pefabloc). Cell treated with lysis buffer were centrifuged at 15,000 rpm for 5 min at 4° C. The protein content in each sample was determined and adjusted to ensure equal loading of protein in each lane. Thereafter, 50 mM DTT and 5× concentrated Laemmli buffer was added and the samples boiled for 5 min. The samples were separated by SDS polyacrylamide gel electrophoresis and subsequently transferred to PVDF membranes. For immunoblotting the membranes were blocked in PBS supplemented with 0.2% Tween 20 and 1% non-fat milk for Wnt-5a or 3% non-fat milk as for all other antibodies for 1 h. […] Finally, the Ab-antigen complexes were detected using enhanced chemiluminescence. […]
In the present study the level of PKC auto-phosphorylation (Weeraratna et al., 2002, Dissanayake et al., 2007) was not estimated since its relation to PKC kinase activity is unclear. Instead the effects of Wnt-5a and Box5 on the phosphorylation of the endogenous PKC substrate MARCKS were analyzed as a direct means of estimating the activity level of PKC in the melanoma cells. […]

[6] = test system: Wnt-5a protein expression; test: Wnt-5a protein expression in A2058 cells, Western blot
Description: The cells were either directly lysed in 1× Laemmli buffer containing DTT and boiled for 10 min, or lysed in buffer containing 50 mM Tris-HCl (pH 7.5), 1% Triton X-100, 100 mM NaCl, 10 mM MgCl2, 20% glycerol, 1 mM Na3VO4, and protease inhibitors (20 μg/ml aprotinin, 1 μg/ml leupeptin, 2.5 mM benzamidine, and 2 mM pefabloc). Cell treated with lysis buffer were centrifuged at 15,000 rpm for 5 min at 4° C. The protein content in each sample was determined and adjusted to ensure equal loading of protein in each lane. Thereafter, 50 mM DTT and 5× concentrated Laemmli buffer was added and the samples boiled for 5 min. The samples were separated by SDS polyacrylamide gel electrophoresis and subsequently transferred to PVDF membranes. For immunoblotting the membranes were blocked in PBS supplemented with 0.2% Tween 20 and 1% non-fat milk for Wnt-5a or 3% non-fat milk as for all other antibodies for 1 h. Thereafter the membranes were incubated for 1 h at room temperature or overnight at 4° C. with the indicated primary Ab (1:25,000 for β-actin; 1:1,000 for Wnt-5a and 1:1,000 for TGF-β1) in 2% non-fat milk or 1.5% BSA. After extensive washing in PBS with 0.2% Tween, the membranes were incubated for 1 h with a horseradish peroxidase-conjugated secondary Ab in 2% non-fat milk or 1.5% BSA and again extensively washed. Finally, the Ab-antigen complexes were detected using enhanced chemiluminescence. […]

A2058 melanoma cells [7] = test: Cell adhesion assay, A2058 cells; conditions: TGF-β1, 60 min adhesion
Description: Cells pre-treated and stimulated as described below were detached with Versene, re-suspended in serum-free RPMI medium and samples containing 30,000 cells from each treatment group were added to each well of a 96-well plate The cells were allowed to adhere for 60 min at 37° C. in a humidified atmosphere of 5% carbon dioxide after which the non-adherent cells were washed away with PBS. The adherent cells were fixed in 1% glutaraldehyde for 10 min at room temperature and then stained with 0.5% crystal violet in 20% methanol for 10 min. Finally the stain from each group of cells was dissolved in 50% acetic acid. The amount of dissolved stain from each well was thereafter measured in a Fluostar plate reader (BMG Lab Technologies GmbH, Offenberg, Germany) at 544 nm. The individual samples from each separate experiment were analysed in quadruplicate and the accumulated data were based on 5 separate experiments. The results are illustrated in FIG. 4. • A) A2058 melanoma cells were stimulated with the indicated concentrations of Wnt-5a, detached with Versene and resuspended as single cells in serum-free medium in the presence or absence of recombinant Wnt-5a at the indicated concentrations. Cells were then allowed to adhere in a 96-well plate. After a period of 60 min the non-adherent cells were washed away while the adherent cells were stained and their number determined. This number is presented as a percentage of the control (no Wnt-5a) stimulation (FIG. 4A) • B) A2058 melanoma cells were cultured to confluence in a 12-well plate after which a scratch was inflicted in each well, the medium was changed to fresh serum-free medium lacking (closed circles) or containing 0.2 μg/ml Wnt-5a (open squares). (FIG. 4B) • C) A2058 melanoma cells were cultured to confluence in a 12-well plate after which a scratch was inflicted to each well, the medium was changed to fresh serum-free medium in the absence of any additive (closed circle), the presence of 0.2 μg/ml Wnt-5a alone (open squares) or the presence of 0.2 μg/ml Wnt-5a with 100 μM Box5 (open triangle). (FIG. 4C) • D) HTB63 melanoma cells were cultured to confluence in a 12-well dish after which a scratch was inflicted to each well, the medium was changed to fresh serum-free medium (closed circle), conditioned medium (open squares) or conditioned medium supplemented with 100 μM Box5 (open triangle). To record changes in migration in panels B-D, a picture was taken from each scratch/well from the same area of cells after 0, 16, 24, 40 or 48 hours, and the wound-healing was expressed as percentage of wound area closed. […] The cells were then allowed to invade for 24 hours after which the attached cells on the lower side of the membrane were counted. […]

## endothelin-1: G-protein coupled control receptor ligand from Sigma Aldrich (CSCSSLMDKECVYFCHLDIIW; disulfide 1-15, 3-11; ends not checked; UniProt P05305 53-73, looked up) [reference compound]
[1]
  Cytosolic Ca^2+ response in A2058 cells, control G-protein coupled receptor ligands: prompt responses

## C[N+](C)(C)CCOC(N)=O [carbachol, reference compound]
[1]
  Cytosolic Ca^2+ response in A2058 cells, control G-protein coupled receptor ligands: prompt responses

## t-boc-Met-Asp-Gly-Cys-Glu-Leu (Boc-MDGCEL) [Box5, novel Wnt-5a-derived N-butyloxycarbonyl hexapeptide (Met-Asp-Gly-Cys-Glu-Leu), Wnt-5a antagonist]
HTB63 melanoma cells [2]
  Effect on invasion of HTB63 cells (endogenous Wnt-5a): inhibit
HTB63 melanoma cells [3]
  Effect on migration of HTB63 cells: inhibits
A2058 melanoma cells [4]; 100 μM Box5, 0.2 μg/ml Wnt-5a, 24 hours
  Effect on Wnt-5a-induced invasion of A2058 cells: abolished
A2058 melanoma cells [4]; 100 μM Box5, 24 hours
  Effect on basal invasion of A2058 cells: no effect
A2058 melanoma cells [5]; 100 μM Box5, 0.2 μg/ml Wnt-5a, wound area closed over 0-48 hours
  Effect on Wnt-5a-induced migration of A2058 cells: abolished
A2058 melanoma cells [5]; 100 μM Box5, no Wnt-5a, wound area closed over 0-48 hours
  Effect on intrinsic (basal) migration of A2058 cells: no effect
A2058 melanoma cells [5]; 100 μM Box5 pre-incubated 40 minutes, 5 ng/ml TGF-β1
  Effect on TGF-β1-induced migration of A2058 cells: abolished; also recorded: blocked
[1]; 100 μM Box5, charbacol 5 μM
  Effect on charbacol-induced Ca^2+ signaling: no significant effect
[1]; 100 μM Box5, endothelin-1 10 nM
  Effect on endothelin-1-induced Ca^2+ signaling: no significant effect
[1]; 100 μM Box5 overnight pre-incubation, 0.1 μg/ml Wnt-5a
  Inhibition of Wnt-5a-induced Ca^2+ signal (peak values): more than 70%
PKC
  Effect on Wnt-5a-induced MARCKS phosphorylation: inhibited; also recorded: abolished

## TGF-β1: human recombinant TGF-β1 protein from R&D Systems
[6]; TGF-β1
  Concentration giving near maximal Wnt-5a expression: 5 ng/mL
[6]; different concentrations of recombinant TGF-β1, 36 h
  Wnt-5a protein expression in A2058 cells: increased expression
A2058 melanoma cells [4]; 5 ng/ml TGF-β1, 24 hours
  Effect on migration of A2058 cells in the invasion assay: inhibited
A2058 melanoma cells [5]; 5 ng/ml TGF-β1
  Effect on migration of A2058 cells: increased
A2058 melanoma cells [7]
  Concentration giving maximal effect on adhesion of A2058 cells: 5 ng/mL
  Effect on adhesive capacity of A2058 cells: stimulated

## CC(=O)OCOC(=O)CN(CC(=O)OCOC(C)=O)c1ccc(C)cc1OCCOc1cc(C)ccc1N(CC(=O)OCOC(C)=O)CC(=O)OCOC(C)=O [MAPT/AM, reference compound]
A2058 melanoma cells [4]; 10 μM MAPT/AM 30 minutes pre-incubation, then 1 μM for 24 hours
  Effect on pro-invasive effect of Wnt-5a on A2058 cells: completely abolished
[1]; 10 μM MAPT/AM for 30 minutes, rWnt-5a 0.1 μg/ml
  Effect on Wnt-5a-stimulated cytosolic Ca^2+ signal: inhibited

B1: Wnt-3a: human recombinant Wnt-3a protein, canonical Wnt ligand (protein, UniProt P56704 19-352, looked up)
Protein Wnt-3a: SYPIWWSLAVGPQYSSLGSQPILCASIPGLVPKQLRFCRNYVEIMPSVAEGIKIGIQECQHQFRGRRWNCTTVHDSLAIFGPVLDKATRESAFVHAIASAGVAFAVTRSCAEGTAAICGCSSRHQGSPGKGWKWGGCSEDIEFGGMVSREFADARENRPDARSAMNRHNNEAGRQAIASHMHLKCKCHGLSGSCEVKTCWWSQPDFRAIGDFLKDKYDSASEMVVEKHRESRGWVETLRPRYTYFKVPTERDLVYYEASPNFCEPNPETGSFGTRDRTCNVSSHGIDGCDLLCCGRGHNARAERRREKCRCVFHWCCYVSCQECTRVYDVHTCK
A2058 melanoma cells [4]; 0.1 μg/ml Wnt-3a, 24 hours
  Stimulation of invasion of A2058 cells: not seen

Reference: patent US8497352B2, “Use of Wnt5-α peptide derivates for the treatment of melanoma and gastric cancer” (Wntresearch AB, priority 2008, dated 2013)
